Earlier results as cited in US20220142981A1, “APREMILAST LIPOPHILIC TOPICAL PHARMACEUTICAL COMPOSITIONS” (APRAMITHA INNOVATIONS PRIVATE LIMITED, priority 2019, published 2022).

solubility in polar solvents (polar solvents): minimal solubility
solubility in water (water): insolubility
SMILES: CCOc1cc([C@@H](CS(C)(=O)=O)N2C(=O)c3cccc(NC(C)=O)c3C2=O)ccc1OC [Apremilast, N-[2-[(lS)-l-(3-ethoxy-4-methoxyphenyl)-2-(methylsulfonyl)ethyl]-l,3-dioxo-2,3-dihydro-lH-isoindol-4-yl]acetamide]
